Results on four compounds are retold here after article PMC9917213, “New Insights into Bitopic Orthosteric/Allosteric Ligands of Cannabinoid Receptor Type 2” (International Journal of Molecular Sciences, 2023).

Structures are written as SMILES. Like-named read-outs stand apart in the source and are kept apart here.

Usually EC50 stands for the concentration giving half of the maximal effect. The term Emax denotes the greatest response seen or fitted, relative to the assay's reference. As a reminder, the IC50 is the concentration that gives 50% inhibition. High values mean weaker potency in that assay, low ones greater potency in that assay. One may read the Ki as a dissociation constant, usually derived from enzyme kinetics or from competition with a known ligand. A high value points to lower affinity.

In series [1] the target is T1, hCB2R (Homo sapiens, UniProt P34972).
T1 construct: host or cells: CHO-K1 (HitHunter cAMP cell line)
T1 sequence (P34972 whole entry): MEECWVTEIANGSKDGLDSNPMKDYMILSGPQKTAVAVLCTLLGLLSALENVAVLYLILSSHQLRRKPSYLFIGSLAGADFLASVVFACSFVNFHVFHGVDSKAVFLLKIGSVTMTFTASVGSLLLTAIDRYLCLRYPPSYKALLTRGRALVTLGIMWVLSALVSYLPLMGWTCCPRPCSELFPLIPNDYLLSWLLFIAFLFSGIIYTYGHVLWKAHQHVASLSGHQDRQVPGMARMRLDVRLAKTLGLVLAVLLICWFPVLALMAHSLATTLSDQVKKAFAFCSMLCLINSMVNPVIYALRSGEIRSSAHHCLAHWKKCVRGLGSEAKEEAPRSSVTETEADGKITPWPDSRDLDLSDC
The series can be described thus: HitHunter cAMP assay: inhibition of forskolin-stimulated cAMP. Format: cell-based. The note with it: for Emax: read-out: Emax ± SEM. On the procedure: Chinese hamster ovary (CHO)-K1 cells untransfected or stably-expressing human cannabinoid CB2R (hCB2R) were used as previously reported. Cells were maintained at 37 °C, 5% CO2 in F-12/DMEM containing 1 mM L-glutamine, 10% fetal bovine serum (FBS), and 1% Pen/Strep and hygromycin B (300 μg/mL) and G418 (400 μg/mL). HitHunter® (cAMP) CHO-K1 cells stably expressing hCB2R from DiscoveRx (Eurofins, Fremont, CA, USA) were maintained at 37 °C, 5% CO2 in F-12 DMEM containing 10% FBS and 1% Pen/Strep with 800 μg/mL geneticin.
This method was conducted as described previously. The quantification of FSK-stimulated cAMP accumulation was performed using the DiscoveRx HitHunter assay. Twenty thousand cells/well were plated in low-volume 96-well plates and incubated overnight in Opti-MEM containing 1% FBS at 37 °C and 5% CO2. Opti-MEM media was then removed and replaced with cell assay buffer (DiscoveRx), and cells were co-treated at 37 °C with 10 μM FSK and ligands for 90 min. The cAMP antibody solution and cAMP working detection solutions were added to cells (DiscoveRx), and cells were incubated for 60 min at room temperature. cAMP solution A (DiscoveRx) was added, and cells were incubated for an additional 180 min at room temperature before chemiluminescence was measured on a Cytation5 plate reader (top read, gain 200, integration time 10,000 ms).
Post-hoc analyses were performed using Tukey’s (one-way ANOVA) test.
(cAMP levels reflect the balance of adenylyl cyclase and phosphodiesterase activity.)

Another series addresses T2, hCB1R (Homo sapiens, UniProt P21554).
T2 construct: expressed in transfected cells; host or cells: CHO-K1 cell membranes
Nature of the series: [3H]CP55,940 radioligand displacement assay, hCB1R. In kind it is binding. The note with it: CHO hCB1R membranes, 1 nM [3H]CP55,940, 0.10 nM-10 μM compound, 2 h. How it is done:
(§1) We assessed ligand affinity for JR-22a at hCB1R and hCB2R using a […]
(§2) either receptor. […] At hCB2R, JR-22a
(§3) Figure S1. […] Membranes from CHO-K1 cells stably-expressing hCB1R (a) or […]
(§4) Data were fitted to a non-linear regression (three-parameter model, GraphPad v. 9.0). Data are mean ± S.E.M. of 3 independent experiments performed in triplicate.
(§5) Radioligand Displacement Assay.
(§6) Cells were scraped from flasks, centrifuged, and frozen at −80 °C until required.
(§7) This method was conducted as described previously. Cells were thawed, diluted in Tris buffer (50 mM Tris−HCl and 50 mM Tris−base), and homogenized in a 1 mL handheld homogenizer. hCB1R and hCB2R CHO−K1 cell membranes were collected by cavitation in a pressure cell and sedimented by ultracentrifugation. Pellets were resuspended in TME buffer (50 mM Tris−HCl, 5 mM MgCl2, 1 mM EDTA, pH 7.4), and protein concentration was measured via the Bradford method (Bio-Rad Laboratories, Mississauga, ON). Competition binding experiments were conducted with 1 nM [3H]CP55, 940 and Tris binding buffer (50 mM Tris−HCl, 50 mM Tris−base, 0.1% BSA, pH 7.4, 2 mL). Radioligand binding began with the addition of CHO−K1 cell membranes (50 μg protein per sample). […] Liquid scintillation spectrometry was used to quantify radioactivity. For competition binding experiments, specific binding was equal to the difference in radioactivity with or without 1 μM […]
(In general: Loss of bound radioactivity is the signal in a displacement assay; it reports binding, not function.)

The subject of series [2] is HMC3 cells. The series can be described thus: IL-6 release (ELISA) in LPS/TNFα stimulated HMC3 cells. In kind it is cell-based, human. On the procedure: The human microglial clone 3 cell line (HMC3) (ATCC® CRL-3304™) was cultured in high glucose DMEM supplemented with 10% FBS, streptomycin ([…]) and penicillin (100 U/mL) (Sigma-Aldrich, Milan, Italy). LPS (Cat. number L4391) and TNFα (Cat. number H8916) were purchased from Sigma-Aldrich (Milan, Italy).
The pro-inflammatory IL-6 levels were evaluated by a specific ELISA assay (RAB0306, Sigma-Aldrich, Milan, Italy) on collected culture media. Briefly, HMC3 cells were exposed to pretreatment with a test compound for 30 min followed by LPS (10 μg/mL)/TNFα (50 ng/mL) for 24 h, used as pro-inflammatory stimuli. Vehicle-treated cells were used as control. In competition experiments, the CB2R antagonist (SR144528, 1 μM; Cayman Chemical Company, Ann Arbor, MA, USA) or the CB2R positive allosteric modulator (EC21a, 10 μM) was administered 15 min before agonist administration.

Series [3] relates to HMC3 cells. The series can be described thus: MTT cell viability assay. In kind it is cell-based, human. The note with it: 24 h. How it is done: Cell viability was evaluated by 3-(4,5-dimethylthiazol-2-yl)-2,5-diphenyltetrazolium bromide (MTT) reagent. Briefly, HMC3 cells were exposed to increasing concentrations of the compound, ranging from 0.1 to 25 µM. After 24 h, 0.5 mg/mL MTT reagent was added to each well, and the cells were incubated for 3 h at 37 °C. Then, 25 µL of the medium was removed from the wells, and 50 µL of DMSO was added. After 10 min incubation at 37 °C, absorbance at OD540 nm was determined with an automated microplate reader (BIO-TEK, Winooski, VT, USA). The percentage of cell viability was calculated as a percentage of vehicle-treated cells used as control.
In general terms: Tetrazolium assays rely on reduction of a dye to a coloured formazan, in cell work by metabolically active cells.

Series [4] is described as follows: Plasma stability (LC-HRMS), human plasma. Format: in vitro ADME. The note with it: 20 µM, 37 °C, up to 360 min. On the procedure:
(§8) Plasma stability was evaluated at the time points 0, 10, 30, 60, 120, 240, and 360 min over two species, rodent (rat) and human, and assessed by LC-HRMS. Results are expressed as a relative percentage (mean ± SD) with respect to the amount at t = 0 min. JR22a is stable both in rat and human plasma up to the last time point tested (360 min), as can be observed in Figure 6.
(§9) Stock solutions of 1 mg/mL JR22a and procainamide (used as internal standard, IS) were prepared in CH3OH and kept in ice during sample preparation and stored at −20 °C if not in use. The stability was tested in rat and human plasma obtained from Sigma-Aldrich (Milan, Italy).
(§10) JR22a (20 µM) was incubated with plasma at 37 °C under gentle shaking up to […] in triplicates. An aliquot of 20 µL was withdrawn from the mixture and diluted to a final volume of 200 µL of a 2 % TCA solution containing procainamide 1 µM at each time point: 10, 30, 60, 120, 240, and 360 min. Samples were kept in ice for 20 min and then centrifugated at 14,000 rpm for 10 min at 4 °C. The supernatant was diluted 1:1 with water and transferred in vials for the analysis. […]

Series [5] is described as follows: Plasma stability (LC-HRMS), rat plasma. Format: in vitro ADME. Conditions: 20 µM, 37 °C, up to 360 min. How it is done: as §8, §9, §10
Series [6] addresses T1, hCB2R. Nature of the series: [3H]CP55,940 radioligand displacement assay, hCB2R. Format: binding. On the procedure: as §1, §2, §3, §4, §5, §6, §7
The mark [7] stands for this setting: pEC50 ± SEM, compound alone, CHO hCB2R, 10 μM FSK, 90 min.

T2 sequence (P21554 whole entry): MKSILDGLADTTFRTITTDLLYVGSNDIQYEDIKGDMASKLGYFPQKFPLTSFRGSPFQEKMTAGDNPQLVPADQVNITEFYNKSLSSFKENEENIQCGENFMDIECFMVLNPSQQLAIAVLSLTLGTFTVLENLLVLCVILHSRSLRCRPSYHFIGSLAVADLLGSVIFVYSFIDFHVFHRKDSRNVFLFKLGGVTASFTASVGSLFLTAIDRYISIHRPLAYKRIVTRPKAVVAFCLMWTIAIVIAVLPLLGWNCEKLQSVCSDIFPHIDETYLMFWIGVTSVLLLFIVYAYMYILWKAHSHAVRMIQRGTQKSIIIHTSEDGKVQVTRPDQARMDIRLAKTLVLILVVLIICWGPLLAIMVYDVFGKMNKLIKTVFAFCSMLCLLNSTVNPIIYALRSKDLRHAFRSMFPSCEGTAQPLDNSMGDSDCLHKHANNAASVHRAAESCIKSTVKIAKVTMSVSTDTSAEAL

`Cc1c(Br)cn(CCCCCCCn2c(=O)c(C(=O)NC3CCC(C)CC3)cc3cccnc32)c(=O)c1NC(=O)C1CCCCCC1` (stereo not drawn) [JR64a] had an EC50 at hCB2R [1] (setting [7]) of 2.51 nM. Also, the Emax at hCB2R [1] was determined as 19 ± 6%.

For the compound `Cc1c(Br)cn(CCCc2cn(CCCCCn3c(=O)c(C(=O)NC4CCC(C)CC4)cc4cccnc43)nn2)c(=O)c1NC(=O)C1CCCCCC1` (stereo not drawn) [JR22a], on hCB1R, the “Displacement of [3H]CP55,940” value was “not able to displace”. In the series with HMC3 cells [2] (1 and 10 μM, 30 min pre-treatment, then LPS (10 μg/mL)/TNFα (50 ng/mL) 24 h), the “IL-6 levels in the cultured medium” value is listed as “significant dose-dependent decrease”. For the same compound, in the series on HMC3 cells [2] (EC21a 10 μM, equimolar with JR22a, LPS/TNFα 24 h), the “Effect of EC21a co-treatment on ability of JR22a to prevent IL-6 release” value was “did not interfere”. In addition, in the series on HMC3 cells [2] (SR144528 1 μM, 15 min before JR22a, LPS/TNFα 24 h), the “Effect of SR144528 pre-administration on the JR22a effect on IL-6 release” value is given as “almost completely abolished”. In the series with HMC3 cells [3] (25 μM), the “Cell viability (MTT)” value is reported as “significant inhibition of cell viability”. Also, the “Cytotoxic effect (cell viability, MTT)” value in the series with HMC3 cells [3] (1 and 10 μM) was “no cytotoxic effect”. Also, the Plasma stability entry in series [4] and in series [5] was “stable” throughout. Further, at hCB2R [6], the IC50 turned out to be 95 nM. This compound also yielded an inhibitory constant (Ki) at hCB2R [6] of 95 nM. Moreover, the EC50 on hCB2R [1] (EC50 (in brackets after pEC50), compound alone, CHO hCB2R, 10 μM FSK, 90 min) is 698 nM; on hCB2R [1] (setting [7]), 794 nM. The Emax at hCB2R [1] is 53 ± 6%.

Turning to `Cc1c(Br)cn(Cc2ccc(F)cc2)c(=O)c1NC(=O)C1CCCCCC1` [EC21a, reference compound], on hCB2R [1], the EC50 is 30 nM and the Emax was -14 ± 7%. The “Activity alone in cAMP inhibition” value at hCB2R [1] (EC21a alone, Emax not different from 0) was “inactive”.

Regarding `Cc1c(Br)cn(CCCc2cn(CCCCC(=O)NC3CCC(NC(=O)c4cc5cccnc5n(Cc5ccc(F)cc5)c4=O)CC3)nn2)c(=O)c1NC(=O)C1CCCCCC1` (stereo not drawn) [JR14a], the “pEC50 ± SEM” value on hCB2R [1] (compound alone, CHO hCB2R, 10 μM FSK, 90 min) came to 7.6 ± 0.9. Besides, on hCB2R [1] (compound alone, CHO hCB2R, 10 μM FSK, 90 min, read-out: EC50 (in brackets after pEC50) (converted)), the half-maximal effective concentration (EC50) was 24 nM. Besides, the Emax on hCB2R [1] is 29 ± 5%.
